In article PMC11645656, “MRGPRX4 mediates phospho-drug associated pruritus in a humanized mouse model” (Science translational medicine, 2024):
“And” between values parts separate entries of the source, which are not always exact repeats. Equal values may be shown once.

Columns and labels:
Type in all cases: cell-based
MRGPRX4 WT (S83) [1] = biological target: T1, MRGPRX4 WT (S83) (Homo sapiens, UniProt Q96LA9, L83S); assay: Calcium mobilization assay (FLIPR), WT (S83) MRGPRX4 transiently expressed in HEK293T cells; set-up: expressed in transfected cells; host or cells: HEK293T, transient; conditions: for fig. S8 response (normalized), concentration-response: WT, single replicate
T1 sequence (Q96LA9 whole entry L83S): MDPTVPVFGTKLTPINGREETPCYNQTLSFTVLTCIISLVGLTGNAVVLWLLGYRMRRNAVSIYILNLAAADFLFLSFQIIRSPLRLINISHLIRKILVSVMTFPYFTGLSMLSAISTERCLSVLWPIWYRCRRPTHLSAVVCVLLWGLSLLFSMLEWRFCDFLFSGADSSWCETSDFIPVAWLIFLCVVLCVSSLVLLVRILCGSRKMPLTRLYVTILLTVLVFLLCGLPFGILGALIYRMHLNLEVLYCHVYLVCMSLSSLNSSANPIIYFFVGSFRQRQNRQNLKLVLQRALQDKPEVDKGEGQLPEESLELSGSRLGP
Text: (§1) Fig. 4. […] Hydrogen bond is shown as cyan dashed lines. […] Data are from three independent experiments, performed in triplicate. (E) pEC50 plots of various agonists toward S83- and L83-MRGPRX4 through calcium mobilization assay. […] Each data point represents an independent experiment, performed in triplicate. The extra sum-of-square F test was used to examine the difference in EC50 values. One-sided t-test was used for nateglinide. *p< 0.05, **p< 0.01 and ***p< 0.001. ns = no statistical significance. Both (D) and (E) are reported as the mean ± SEM. N.D.= no detectable response ≤ 100 μM.
(§2) HEK293 cells and MRGPRX4 stably expressed HEK293 cells were seeded in 100 μl culture media on 96-well plates at a density of 40,000 cells per well and incubated overnight. The next day, the media were replaced with a dye-loading solution from the FLIPR Calcium 5 assay kit (Molecular Devices), diluted in Hank's Balanced Salt Solution (HBSS) with 20 mM HEPES, pH 7.4. After 1 h of incubation at 37°C, cells were allowed to recover for 10 min in the dark at room temperature prior to performing intracellular calcium mobilization assay in a Flexstation-3 instrument with SoftMax®Pro 7.1 software (Molecular Devices). Serial concentrations of tested drugs were prepared in HBSS/HEPES solution at 3X concentration. […] Compounds were tested in triplicates and the signals were averaged. Responses were determined by subtracting the minimum signal (at the baseline before adding the drug) from the maximum signal (obtained after drug stimulation). Four-parameter logistic (4PL) curve fit was used to plot the dose-response curves. […] Both dose-response curve fitting and EC50s calculation are computed with GraphPad Prism software (version: 6.o or above).
(§3) To generate murine Mrgprs expressing cells, HEK293T cells (ATCC) were seeded on poly-D-lysine coated 96 well plate at 25,000 cells per well one day prior to transfection. HEK293T cells were transiently co-transfected with the mammalian expression plasmids carrying cDNA encoding the murine Mrgpr genes and plasmid inserted with cDNA encoding murine α-subunit of the heterotrimeric G15 protein (Gα15) in triplicates using Lipofectamine LTX reagents (Thermo Scientific). To generate WT, S83L, and alanine mutant MRGPRX4-expressing cells, HEK293T cells were seeded on poly-D-lysine coated 384 well plate at 12,000 cells per well one day prior to transfection. Mammalian expression plasmids pLX304 (vector from Addgene) carrying different MRGPRX4 coding sequences were transiently transfected into HEK293T cells in triplicates with Lipofectamine LTX reagents (Thermo Scientific). Intracellular calcium mobilization assays were performed after one day of transfection. Murine Mrgprs tested include Mrgpra1, Mrgpra2a, Mrgpra2b, Mrgpra3, Mrgpra4, Mrgpra6, Mrgpra9, Mrgpra10, Mrgpra11, Mrgpra12, Mrgpra14, Mrgprb5, Mrgprb6, Mrgprb10, Mrgprb11, and Mrgprc11. WT and mutant MRGPRX4 constructs tested include WT, S83L, R82A, R86A, R95A, W158A, Y250A, and Y254A.

MRGPRX4 S83L (L83) = MRGPRX4 S83L (L83) (Homo sapiens, UniProt Q96LA9); assay: Calcium mobilization assay (FLIPR), S83L MRGPRX4 transiently expressed in HEK293T cells; set-up: expressed in transfected cells; host or cells: HEK293T, transient; conditions: 2e-5 M, single replicate
Chain of MRGPRX4 S83L (L83) (Q96LA9 whole entry, stated change not applied): as the sequence (Q96LA9 whole entry L83S) above, with S83L counted along it
Text: as §1, §2, §3

MRGPRX4 (S83) = biological target: T2, MRGPRX4 (S83) (Homo sapiens, UniProt Q96LA9, L83S); assay: EC50 determination, intracellular calcium mobilization in MRGPRX4 stably expressed HEK293 cells (FLIPR Calcium 5, Flexstation-3); conditions: propofol series, individual replicate values
T2 construct: expressed in transfected cells
T2 sequence (Q96LA9 whole entry L83S): as the sequence (Q96LA9 whole entry L83S) above
Outline: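 HEK293 cells stably expressing receptor (parental HEK293 alongside) loaded with Calcium 5 dye in HBSS/20 mM HEPES, pH 7.4, 1 h at 37 °C, then compounds added. Response = peak minus pre-drug baseline, triplicates averaged; EC50 from 4PL fit.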

HTLA cells = assay: PRESTO-Tango β-arrestin recruitment assay, parental HTLA cells without MRGPRX4 (control, fig. S1)
Text: Supplement NIHMS2038790-supplement-table.xlsx, sheet "fig. S1" | column: Concentration (M)

MRGPRX4 WT (S83) [2] = biological target: T1, MRGPRX4 WT (S83); assay: PRESTO-Tango β-arrestin recruitment assay, HTLA cells stably expressing WT (S83) MRGPRX4; set-up: expressed in transfected cells; conditions: HTLA::MRGPRX4
Description: HTLA cells, a cell line derived from HEK293 and engineered to stably express a tTA-dependent luciferase reporter and a β-arrestin2-TEV fusion gene, were generously provided by Richard Axel's laboratory. HTLA cells were cultured in growth medium containing 2 μg/ml puromycin and 100 μg/ml hygromycin B in 5% CO2 at 37 °C. Stably MRGPRX4-expressing HTLA cells were generated by transfecting pcDNA3.1(+)-Zeo containing MRGPRX4-Tango construct (either with WT or S83L mutant sequence) into HTLA cells with Lipofectamine 3000 and selecting the successful transfected clones with Zeocin.
HTLA cells stably expressing either WT or S83L MRGPRX4 were seeded in PDL-coated 96-well white clear bottom cell culture plates with DMEM containing 10% FBS, at a density of 35,000 cells per well and were allowed to attach to the bottom of the wells overnight. The next day, growth medium was replaced with 100 μl of serum-free medium containing the tested drugs at various concentrations, and the cells were then incubated at 37°C for 24 h. On the following day, media with drug solutions was removed and 50 μl per well of Bright-Glo™ Reagent from Bright-Glo™ Luciferase Assay System (Promega) was loaded. The plate was incubated at room temperature in the dark for 5 min, and the relative luminescence units were measured using the Flexstation-3 instrument with SoftMax®Pro 7.1 software (Molecular Devices). Dose response curves and EC50s were analyzed as described above.
Data are from at least two independent experiments, each performed in
triplicate, and are depicted as mean ± SEM.
arrestin2-TEV fusion gene and a tTA -dependent luciferase reporter.

SMILES: C[C@H](CCC(=O)O)[C@H]1CC[C@H]2[C@@H]3CC[C@@H]4C[C@H](O)CC[C@]4(C)[C@H]3C[C@H](O)[C@]12C [Deoxycholic Acid]
- fig. S8 response (normalized), concentration-response (MRGPRX4 WT (S83) [1]; 1.95e-8 M): 6.035
- fig. S8 response (normalized), concentration-response (MRGPRX4 WT (S83) [1]; 3.91e-8 M): 8.843
- Potency at S83- vs L83-MRGPRX4 (MRGPRX4 WT (S83) [1]; calcium mobilization, compared with S83L (A17)): equal potency
- fig. S8 response (normalized), concentration-response (MRGPRX4 S83L (L83)): 87.5629

SMILES: CC(C)c1cccc(C(C)C)c1O [Propofol]
- Fig. 1D dose-response, calcium response at Concentration (M) (MRGPRX4 (S83); 9.76563e-7 M): 0.414 and 3.255 and 2.599 and 1.616 and 1.795 and 1.237 and 1.276 and 3.496 and 2.341
- Fig. 1D dose-response, calcium response at Concentration (M) (MRGPRX4 (S83); 1.95313e-6 M): 1.458 and 0.513 and 0.300 and 1.914 and 1.276 and 2.203 and 3.251 and -1.964 and 1.519
- Fig. 1D dose-response, calcium response at Concentration (M) (MRGPRX4 (S83); 3.90625e-6 M): 5.819 and 7.751 and 4.466 and 7.090 and 4.830 and 4.639 and 13.006 and -1.259 and 2.816
- Fig. 1D dose-response, calcium response at Concentration (M) (MRGPRX4 (S83); 7.8125e-6 M): 1.962 and 0.130 and 1.580 and 1.041 and 3.162 and 0.591 and -0.388 and 5.581 and 3.691
- Fig. 1D dose-response, calcium response at Concentration (M) (MRGPRX4 (S83); 1.5625e-5 M): 1.132 and 9.188 and 9.688 and 3.963 and 8.123 and 8.863 and 0.133 and 12.778 and 11.454
- Fig. 1D dose-response, calcium response at Concentration (M) (MRGPRX4 (S83); 3.125e-5 M): 25.991 and 46.958 and 31.996 and 27.619 and 18.338 and 28.954 and 31.875 and 17.124 and 5.004
- Fig. 1D dose-response, calcium response at Concentration (M) (MRGPRX4 (S83); 6.25e-5 M): 7.246 and 18.605 and 32.559 and 31.367 and 1.645 and 36.351 and 11.712 and 17.508 and 39.720
- Fig. 1D dose-response, calcium response at Concentration (M) (MRGPRX4 (S83); 0.00025 M): 30.626 and 14.912 and 5.366 and 49.034 and 15.438 and 25.512 and 22.768 and 21.559 and 24.302
- Fig. 1D dose-response, calcium response at Concentration (M) (MRGPRX4 (S83); 0.0005 M): 10.617 and 40.711 and 21.943 and 10.261 and 44.385 and 12.114 and 18.721 and 45.754 and 25.261
- Fig. 1D dose-response, calcium response at Concentration (M) (MRGPRX4 (S83); 0.001 M): 34.500 and 40.615 and 40.058 and 10.462 and 33.199 and 24.127 and 20.241 and 39.351 and 8.604
- PRESTO-Tango response (fig. S1), single replicate (HTLA cells; concentration 9.77e-7 M): 0.002641 and 0.003228 and 0.001921 and 0.003818 and 0.005628 and 0.002399 and 0.002922 and 0.00482 and 0.001506
- PRESTO-Tango response (fig. S1), single replicate (HTLA cells; concentration 1.95e-6 M): 0.01304 and 0.00742 and 0.001861 and 0.009318 and 0.007315 and 0.005392 and 0.006104 and 0.000476 and 0.005086
- PRESTO-Tango response (fig. S1), single replicate (HTLA cells; concentration 3.91e-6 M): 0.0059 and 0.008908 and 0.007295 and 0.003528 and 0.003903 and 0.003563 and 0.006271 and 0.01085 and 0.002976
- PRESTO-Tango response (fig. S1), single replicate (HTLA cells; concentration 7.81e-6 M): 0.01035 and 0.005294 and 0.00767 and 0.001374 and 0.003682 and 0.00304 and 0.005677 and 0.00324 and 0.000748
- PRESTO-Tango response (fig. S1), single replicate (HTLA cells; concentration 1.56e-5 M): 0.005663 and 0.003492 and 0.001779 and 0.006047 and 0.000809 and 0.001829 and 0.006081 and 0.002266 and 0.003388
- PRESTO-Tango response (fig. S1), single replicate (HTLA cells; concentration 3.13e-5 M): 0.005015 and 0.001994 and 0.006447 and 0.00774 and 0.01014 and 0.004442 and 0.006627 and 0.005281 and 0.005885
- PRESTO-Tango response (fig. S1), single replicate (HTLA cells; concentration 6.25e-5 M): 0.00323 and 0.00222 and 0.005079 and 0.001882 and 0.000357 and 0.003112 and 0.002446 and 0.001662 and 0.004291
- PRESTO-Tango response (fig. S1), single replicate (HTLA cells; concentration 0.00025 M): 0.00362 and 0.004413 and 0.002642 and 0.006045 and 0.000923 and 0.008313 and 0.004252 and 0.005811 and 0.003669
- PRESTO-Tango response (fig. S1), single replicate (HTLA cells; concentration 0.0005 M): 0.004877 and 0.00565 and 0.005098 and 0.004157 and 0.003595 and 0.001306 and 0.008836 and 0.005548 and 0.00448
- PRESTO-Tango response (fig. S1), single replicate (HTLA cells; concentration 0.001 M): 0.000524 and 0.002159 and 0.001733 and 0.007522 and 0.000243 and 0.003444 and 0.004679 and 0.004321 and 0.006568
- PRESTO-Tango response (fig. S1), single replicate (MRGPRX4 WT (S83) [2]; concentration 9.77e-7 M): 0.1179 and 0.1434 and 0.1128 and 0.0576 and 0.1584 and 0.1581 and 0.09558 and 0.2113 and 0.06727
- PRESTO-Tango response (fig. S1), single replicate (MRGPRX4 WT (S83) [2]; concentration 1.95e-6 M): 0.1108 and 0.0929 and 0.1168 and 0.004899 and 0.1204 and 0.1953 and 0.1172 and 0.1059 and 0.09744
- PRESTO-Tango response (fig. S1), single replicate (MRGPRX4 WT (S83) [2]; concentration 3.91e-6 M): 0.09107 and 0.1491 and 0.1505 and 0.154 and 0.1534 and 0.08321 and 0.05164 and 0.03127 and 0.3077
- PRESTO-Tango response (fig. S1), single replicate (MRGPRX4 WT (S83) [2]; concentration 7.81e-6 M): 0.1035 and 0.1156 and 0.1105 and 0.05878 and 0.1844 and 0.08643 and 0.09982 and 0.0447 and 0.1851
- PRESTO-Tango response (fig. S1), single replicate (MRGPRX4 WT (S83) [2]; concentration 1.56e-5 M): 0.1135 and 0.116 and 0.1027 and 0.1824 and 0.02561 and 0.1241 and 0.06605 and 0.09721 and 0.1689
- PRESTO-Tango response (fig. S1), single replicate (MRGPRX4 WT (S83) [2]; concentration 3.13e-5 M): 0.1268 and 0.1068 and 0.1143 and 0.2727 and 0.04775 and 0.02749 and 0.1181 and 0.1469 and 0.08291
- PRESTO-Tango response (fig. S1), single replicate (MRGPRX4 WT (S83) [2]; concentration 6.25e-5 M): 0.1552 and 0.07997 and 0.0929 and 0.03397 and 0.1353 and 0.1588 and 0.2302 and 0.01074 and 0.08707
- PRESTO-Tango response (fig. S1), single replicate (MRGPRX4 WT (S83) [2]; concentration 0.00025 M): 0.109 and 0.07615 and 0.1012 and 0.1462 and 0.1013 and 0.03885 and 0.188 and 0.002674 and 0.09569
- PRESTO-Tango response (fig. S1), single replicate (MRGPRX4 WT (S83) [2]; concentration 0.0005 M): 0.06978 and 0.08316 and 0.1048 and 0.1033 and 0.11 and 0.04438 and 0.05461 and 0.1469 and 0.05616
- PRESTO-Tango response (fig. S1), single replicate (MRGPRX4 WT (S83) [2]; concentration 0.001 M): 0.07852 and 0.088 and 0.0856 and 0.07264 and 0.06166 and 0.1178 and 0.08358 and 0.132 and 0.03659
